Here are results for 45 compounds from patent publication US8426447B2, “Spiro-tricyclic ring compounds as beta-secretase modulators and methods of use” (Amgen Inc., priority 2008, dated 2013).

A value given as a limit tells only on which side of the number the result lay.

Assay [1] concerns the target T1, BACE1 (Homo sapiens, UniProt P56817). Nature of the assay: In Vitro Enzymatic BACE FRET (Fluorescence Resonance Energy Transfer) Assay. The class given is biochemical. The conditions noted are these: read-out: BACE1 FRET assay. The method, boiled down: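 Buffer: 0.05 M acetate, pH 4.2, 10% DMSO final, 100 uM genapol. Start: FRET substrate 50 nM. Incubation 1 h. Stop: Tris to neutral pH. Read: fluorescence.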

For assay [2], the target named is T1, BACE1. Nature of the assay: In Vitro BACE Cell-based Assay (HEK cell assay): Aβ40 in conditioned medium of cells stably expressing Amyloid Precursor Protein, sandwich ELISA. The note with it: read-out: HEK cell assay. The method, boiled down:
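Read-out is time-resolved fluorescence of Aβ40 in supernatant, captured by pAb40 and detected with biotinylated 6E10 plus Streptavidin-Europium. Cells stably expressing APP received compounds for 24 h over 10 concentrations starting at 100 μM or 10 μM, final DMSO 0.1%.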
Background: In an ELISA, binding on a coated surface is turned into a signal by an enzyme label.

T1 sequence (P56817 46-501, species assumed): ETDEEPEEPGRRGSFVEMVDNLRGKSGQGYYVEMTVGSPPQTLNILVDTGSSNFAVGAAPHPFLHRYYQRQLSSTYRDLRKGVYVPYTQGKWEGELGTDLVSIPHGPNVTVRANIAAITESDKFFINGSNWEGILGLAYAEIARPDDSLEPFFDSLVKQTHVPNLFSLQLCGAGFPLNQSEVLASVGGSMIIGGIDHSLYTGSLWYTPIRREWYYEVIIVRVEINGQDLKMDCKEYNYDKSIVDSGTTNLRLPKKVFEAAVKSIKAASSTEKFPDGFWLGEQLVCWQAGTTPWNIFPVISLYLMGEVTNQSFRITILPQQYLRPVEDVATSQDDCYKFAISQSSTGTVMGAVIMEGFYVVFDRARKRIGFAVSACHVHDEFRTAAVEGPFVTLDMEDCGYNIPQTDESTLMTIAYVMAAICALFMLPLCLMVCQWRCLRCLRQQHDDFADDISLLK

As for `COc1ccc2c(c1)C1(COC(N)=N1)c1cc(-c3ccc(OC(F)(F)F)cc3)ccc1O2` (stereo not drawn) [Example 27, 2′-methoxy-7′-(4-(trifluoromethoxy)phenyl)spiro[1,3-oxazole-4,9′-xanthen]-2-amine], the IC50 in assay [1] (Table 1) was over 5 µM; in assay [2] (Table 1, Aβ40, 24 h incubation) it was 1 to 5 µM.
On the same counts, the results for `COc1ccc2c(c1)C1(COC(N)=N1)c1cc(-c3cccc(Cl)c3F)ccc1O2` (stereo not drawn) [Example 18, 2′-(3-chloro-2-fluorophenyl)-7′-methoxyspiro[1,3-oxazole-4,9′-xanthen]-2-amine] are 1 to 5 µM and over 5 µM.
For `CC(C)(C)COc1cnc2c(c1)[C@]1(COC(N)=N1)c1cc(-c3ccc(F)nc3)ccc1O2` [compound 470], the IC50 in assay [1] and in assay [2] (HEK cells) was under 0.1 µM each time.
Regarding `N#Cc1ccccc1-c1ccc2c(c1)[C@]1(COC(N)=N1)c1cc(-c3cccnc3)ccc1O2` [compound 962], the IC50 in assay [1] is under 0.1 µM; in assay [2], 0.1 to 1 µM.
Regarding `Cc1ccc(-c2ccc3c(c2)[C@]2(COC(N)=N2)c2cc(-c4cncnc4)ccc2O3)s1` [compound 820], the IC50 in assay [1] (Table IV, class symbols) is under 0.1 µM; in assay [2] (Table IV, class symbols), under 0.1 µM.
As to `NC1=N[C@]2(CO1)c1ccccc1Oc1ccc(C(=O)NC3CCCCC3)cc12` [compound 621], the IC50 in assay [1] (Table IV, class symbols) was over 5 µM; in assay [2] (Table IV, class symbols), over 5 µM.
For the compound `NC1=N[C@@]2(CO1)c1cc(-c3cccnc3)ccc1Oc1cnc(C3=CCOCC3)cc12` [compound 790], the IC50 in assay [1] and in assay [2] was under 0.1 µM throughout.
Turning to `NC1=N[C@@]2(CO1)c1cc(-c3cncnc3)ccc1Oc1ccc(-c3cccc(C(F)(F)F)c3)cc12` [compound 809], the IC50 in assay [1] (Table IV, class symbols) is under 0.1 µM; in assay [2] (Table IV, class symbols), 0.1 to 1 µM.
`CC(C)(O)C#Cc1ccc2c(c1)[C@@]1(COC(N)=N1)c1cc(-c3cccnc3)ccc1O2` [151b]: the IC50 is under 0.1 µM in assay [1] (Table III, IC50's in uM ranges) and under 0.1 µM in assay [2] (Table III, IC50's in uM ranges).
For the compound `COc1ccc2c(c1)[C@]1(COC(N)=N1)c1cc(-c3cccc4cnccc34)ccc1O2` [compound 588], the IC50 in assay [1] (Table IV, class symbols) fell in the range of 0.1 to 1 µM; in assay [2] (Table IV, class symbols) it was 1 to 5 µM.
Turning to `Cn1cncc1-c1ccc2c(c1)[C@]1(COC(N)=N1)c1cc(OCC(C)(C)C)ccc1O2` [compound 187], the IC50 was 1 to 5 µM in assay [1] (Table III, IC50's in uM ranges) and 1 to 5 µM in assay [2] (Table III, IC50's in uM ranges).
On to `NC1=N[C@@]2(CO1)c1cc(-c3cccc(F)c3)ccc1Oc1cnc(C3=CCOCC3)cc12` [compound 485], for which the IC50 in assay [1] and in assay [2] (HEK cells) was under 0.1 µM throughout.
On to `CC(C)OC1CN(c2ccc3c(c2)[C@]2(COC(N)=N2)c2cc(-c4cccnc4)ccc2O3)C1` [compound 384], for which the IC50 was under 0.1 µM in assay [1] (in vitro BACE FRET enzyme assay, IC50 class symbols) and under 0.1 µM in assay [2] (HEK cell-based assay, Aβ40 in conditioned medium, IC50 class symbols).
Take `NC1=N[C@@]2(CO1)c1cc(-c3ccccc3)ccc1Oc1ncc(N3CCOCC3)cc12` [compound 626]: the IC50 in assay [1] (Table IV, class symbols) is under 0.1 µM; in assay [2] (Table IV, class symbols) it was under 0.1 µM.
With `CC(=O)COc1ccc2c(c1)[C@@]1(COC(N)=N1)c1cc(-c3cccnc3)cnc1O2` [compound 864], the IC50 in assay [1] (Table IV, class symbols) was 0.1 to 1 µM; in assay [2] (Table IV, class symbols), 0.1 to 1 µM.
As to `NC1=N[C@@]2(CO1)c1cc(-c3cccnc3)ccc1Oc1cnc(N3CCNCC3)cc12` [compound 439], the IC50 in assay [1] and in assay [2] (HEK cells) was under 0.1 µM throughout.
`CC(C)(C)COc1ccc2c(c1)[C@@]1(COC(N)=N1)c1cc(-c3ccnc(F)c3)cnc1O2` [compound 752]: the IC50 in assay [1] and in assay [2] was under 0.1 µM each time.
For `COC(C)(C)C#Cc1ccc2c(c1)[C@@]1(COC(N)=N1)c1cc(-c3cccnc3)cnc1O2` [208a], the IC50 in assay [1] (Table III, IC50's in uM ranges) was 0.1 to 1 µM; in assay [2] (Table III, IC50's in uM ranges), 0.1 to 1 µM.
For the compound `CC(C)(C)COc1ccc2c(c1)[C@]1(COC(N)=N1)c1cc(-c3ccc(F)nc3)cnc1O2` [compound 869], the IC50 lay within 0.1 to 1 µM in assay [1] (Table IV, class symbols) and 1 to 5 µM in assay [2] (Table IV, class symbols).
Take `CC(C)(C)c1nc(-c2ccc3c(c2)[C@]2(COC(N)=N2)c2cc(-c4cccnc4)ccc2O3)cs1` [compound 622]: the IC50 in assay [1] (Table IV, class symbols) is under 0.1 µM; in assay [2] (Table IV, class symbols) it was 0.1 to 1 µM.
On to `CC(C)(C)C[C@H](F)c1ccc2c(c1)[C@]1(COC(N)=N1)c1cc(-c3cncnc3)ccc1O2` [116a, (4S)-2′-((1S)-1-fluoro-3,3-dimethylbutyl)-7′-(5-pyrimidinyl)spiro[1,3-oxazole-4,9′-xanthen]-2-amine], for which the IC50 in assay [1] (Table III, IC50's in uM ranges) was under 0.1 µM; in assay [2] (Table III, IC50's in uM ranges), 0.1 to 1 µM.
On to `NC1=N[C@@]2(CO1)c1cc(-c3ccccc3F)ccc1Oc1ncc(C3=CCOCC3)cc12` [compound 488], for which the IC50 in assay [1] and in assay [2] (HEK cells) was under 0.1 µM throughout.
As to `COc1ccc2c(c1)[C@]1(COC(N)=N1)c1cc(-c3cccc4ncccc34)ccc1O2` [compound 591], the IC50 in assay [1] (Table IV, class symbols) lay within 1 to 5 µM; in assay [2] (Table IV, class symbols), 1 to 5 µM.
Take `CC1(C#Cc2cnc3c(c2)[C@]2(COC(N)=N2)c2cc(-c4cc(F)ccc4F)ccc2O3)COC1` [compound 519]: the IC50 in assay [1] and in assay [2] (HEK cells) was under 0.1 µM each time.
In the case of `CC(C)(O)C#Cc1cnc2c(c1)[C@@]1(COC(N)=N1)c1cc(C#CC3CC3)ccc1O2` [compound 705], the IC50 in assay [1] and in assay [2] was over 5 µM throughout.
Take `CC(C)NC(=O)c1ccc2c(c1)[C@@]1(COC(N)=N1)c1cc(OCC(C)(C)C)ccc1O2` [compound 703]: the IC50 in assay [1] and in assay [2] was under 0.1 µM in each case.
For the compound `NC1=N[C@@]2(CO1)c1cc(-c3cncnc3)ccc1Oc1ccc(-c3ccc(F)nc3)cc12` [compound 991], the IC50 in assay [1] and in assay [2] was under 0.1 µM throughout.
Turning to `NC1=N[C@]2(CO1)c1cc(C(=O)CCCO)ccc1Oc1ccc(-c3cccnc3)cc12` [compound 650], the IC50 in assay [1] (Table IV, class symbols) is under 0.1 µM; in assay [2] (Table IV, class symbols) it was 0.1 to 1 µM.
For `CC(=O)c1cccc(-c2ccc3c(c2)[C@@]2(COC(N)=N2)c2cc(OCC(C)(C)C)ccc2O3)c1` [compound 973], the IC50 is 0.1 to 1 µM in assay [1] and 1 to 5 µM in assay [2].
Turning to `NC1=N[C@@]2(CO1)c1cc(-c3cccnc3)ccc1Oc1ccc(-c3cnoc3)cc12` [compound 623], the IC50 in assay [1] (Table IV, class symbols) was under 0.1 µM; in assay [2] (Table IV, class symbols), under 0.1 µM.
As for `COc1ccc2c(c1)[C@]1(COC(N)=N1)c1cc(NC(=O)c3ccc(Cl)nc3)ccc1O2` [compound 617], the IC50 was 1 to 5 µM in assay [1] (Table IV, class symbols) and 1 to 5 µM in assay [2] (Table IV, class symbols).
Take `CC1(C)CC(c2cc3c(cn2)Oc2ccc(-c4cccnc4)cc2[C@@]32COC(N)=N2)=CCO1` [compound 436]: the IC50 in assay [1] and in assay [2] (HEK cells) was under 0.1 µM throughout.
`NC1=N[C@]2(CO1)c1ccncc1Oc1ccc(-c3cccnc3)cc12` [compound 675]: the IC50 in assay [1] was in the range of 0.1 to 1 µM; in assay [2], 1 to 5 µM.
As to `COC(C)(C)C#Cc1ccc2c(c1)[C@]1(COC(N)=N1)c1cc(-c3cccnc3)ccc1O2` [compound 201], the IC50 in assay [1] (Table III, IC50's in uM ranges) was under 0.1 µM; in assay [2] (Table III, IC50's in uM ranges), under 0.1 µM.
In the case of `Cc1cnc(F)c(-c2ccc3c(c2)[C@@]2(COC(N)=N2)c2cccnc2O3)c1` [compound 571], the IC50 in assay [1] (Table IV, class symbols) fell in the range of 0.1 to 1 µM; in assay [2] (Table IV, class symbols) it was 0.1 to 1 µM.
Take `COc1ccc(-c2ccc3c(c2)[C@]2(COC(N)=N2)c2cc(-c4cncnc4)ccc2O3)cn1` [compound 829]: the IC50 was under 0.1 µM in assay [1] (Table IV, class symbols) and under 0.1 µM in assay [2] (Table IV, class symbols).
For `COc1ccc2c(c1)[C@]1(COC(N)=N1)c1cc(NC(=O)[C@@H](C)OC)ccc1O2` [compound 536], the IC50 in assay [1] (Table IV, class symbols) was in the range of 0.1 to 1 µM; in assay [2] (Table IV, class symbols), 0.1 to 1 µM.
For the compound `COc1ccc(F)c(-c2ccc3c(c2)C2(COC(N)=N2)c2cc(OC)ccc2O3)c1` (stereo not drawn) [Example 15, 2′-(2-fluoro-5-methoxyphenyl)-7′-methoxyspiro[1,3-oxazole-4,9′-xanthen]-2-amine], the IC50 was 1 to 5 µM in assay [1] (Table 1) and over 5 µM in assay [2] (Table 1, Aβ40, 24 h incubation).
On to `CC(C)(C)OC(=O)n1cccc1-c1ccc2c(c1)[C@@]1(COC(N)=N1)c1cccc(F)c1O2` [compound 510], for which the IC50 in assay [1] and in assay [2] (HEK cells) was 1 to 5 µM each time.
`COC(C)(C)C#Cc1cnc2c(c1)[C@@]1(COC(N)=N1)c1cc(-c3ccc(F)nc3)ccc1O2` [compound 723]: the IC50 in assay [1] was 0.1 to 1 µM; in assay [2], 1 to 5 µM.
Take `COc1ccc2c(c1)C1(COC(N)=N1)c1cc(-c3cc(Cl)c(C)cc3F)ccc1O2` (stereo not drawn) [Example 23, 2′-(5-chloro-2-fluoro-4-methylphenyl)-7′-methoxyspiro[1,3-oxazole-4,9′-xanthen]-2-amine]: the IC50 in assay [1] (Table 1) was 1 to 5 µM; in assay [2] (Table 1, Aβ40, 24 h incubation), over 5 µM.
Take `CC(C)(C)CCOc1nccc2c1[C@@]1(COC(N)=N1)c1cc(-c3cncnc3)ccc1O2` [compound 985]: the IC50 in assay [1] is 0.1 to 1 µM; in assay [2], over 5 µM.
With `NC1=NC2(CO1)c1cc(-c3cncnc3)ccc1Oc1ccc(-c3cncnc3)cc12` [compound 137], the IC50 in assay [1] (Table III, IC50's in uM ranges) was under 0.1 µM; in assay [2] (Table III, IC50's in uM ranges), 0.1 to 1 µM.
Consider `CC(C)(C)COc1ccc2c(c1)[C@]1(COC(N)=N1)c1cc(C3=CCCC3)ccc1O2` [compound 731], for which the IC50 fell in the range of 0.1 to 1 µM in assay [1] and 1 to 5 µM in assay [2].
Consider `CC(C)(C)COc1ccc2c(c1)[C@@]1(COC(N)=N1)c1cc(C(=O)N3CCCC3)ccc1O2` [218a], for which the IC50 in assay [1] (Table III, IC50's in uM ranges) was in the range of 0.1 to 1 µM; in assay [2] (Table III, IC50's in uM ranges), 1 to 5 µM.
